The NIST ThermoML archive (doi:10.1016/j.jct.2019.03.023)
Several values for one entry are separate records, joined by “and”; a condition that tells them apart may be missing. Identical values can stand only once.

Assay: molar heat capacity at constant volume
Conditions: Vacuum adiabatic calorimetry

CC(C)O [propan-2-ol]
Fluid (supercritical or subcritical phases)
Conditions | molar heat capacity at constant volume
508.38 K, Mass density=274 kg/m3 | 423.79 J/K/mol
508.38 K, Mass density=281.9 kg/m3 | 417.78 J/K/mol
508.38 K, Mass density=288.99 kg/m3 | 404.68 J/K/mol
508.38 K, Mass density=293.3 kg/m3 | 398.73 J/K/mol
508.38 K, Mass density=343.1 kg/m3 | 178 J/K/mol
508.47 K, Mass density=234.3 kg/m3 | 474.81 J/K/mol
508.47 K, Mass density=255.8 kg/m3 | 454.98 J/K/mol
508.47 K, Mass density=266.3 kg/m3 | 444.04 J/K/mol
508.47 K, Mass density=274 kg/m3 | 437.73 J/K/mol
508.47 K, Mass density=281.9 kg/m3 | 430.04 J/K/mol
508.47 K, Mass density=288.99 kg/m3 | 411.05 J/K/mol
508.47 K, Mass density=293.3 kg/m3 | 405.04 J/K/mol
508.47 K, Mass density=324.5 kg/m3 | 207.09 J/K/mol
508.47 K, Mass density=329.2 kg/m3 | 191.7 J/K/mol
508.47 K, Mass density=343.1 kg/m3 | 175.96 J/K/mol
508.51 K, Mass density=234.3 kg/m3 | 487.37 J/K/mol and 279.44 J/K/mol
508.56 K, Mass density=234.3 kg/m3 | 267.78 J/K/mol
508.56 K, Mass density=255.8 kg/m3 | 471.14 J/K/mol
508.56 K, Mass density=266.3 kg/m3 | 462.31 J/K/mol
508.56 K, Mass density=274 kg/m3 | 451.49 J/K/mol
508.56 K, Mass density=281.9 kg/m3 | 440.92 J/K/mol
508.56 K, Mass density=288.99 kg/m3 | 425.11 J/K/mol
508.56 K, Mass density=293.3 kg/m3 | 419.1 J/K/mol
508.56 K, Mass density=324.5 kg/m3 | 206.31 J/K/mol
508.56 K, Mass density=343.1 kg/m3 | 177.52 J/K/mol
508.57 K, Mass density=329.2 kg/m3 | 186.9 J/K/mol
508.61 K, Mass density=293.3 kg/m3 | 422.11 J/K/mol
508.66 K, Mass density=234.3 kg/m3 | 258.83 J/K/mol
508.66 K, Mass density=255.8 kg/m3 | 495.78 J/K/mol
508.66 K, Mass density=266.3 kg/m3 | 484.85 J/K/mol
508.66 K, Mass density=274 kg/m3 | 472.11 J/K/mol
508.66 K, Mass density=281.9 kg/m3 | 456.18 J/K/mol
508.66 K, Mass density=288.99 kg/m3 | 439.35 J/K/mol
508.66 K, Mass density=293.3 kg/m3 | 428.48 J/K/mol
508.66 K, Mass density=324.5 kg/m3 | 201.38 J/K/mol
508.66 K, Mass density=343.1 kg/m3 | 178 J/K/mol
508.67 K, Mass density=274 kg/m3 | 481 J/K/mol
508.67 K, Mass density=329.2 kg/m3 | 188.1 J/K/mol
508.68 K, Mass density=281.9 kg/m3 | 461.83 J/K/mol
508.68 K, Mass density=293.3 kg/m3 | 434.49 J/K/mol and 253.6 J/K/mol
508.69 K, Mass density=255.8 kg/m3 | 507.8 J/K/mol
508.69 K, Mass density=274 kg/m3 | 491.94 J/K/mol
508.69 K, Mass density=288.99 kg/m3 | 447.41 J/K/mol and 264.72 J/K/mol
508.7 K, Mass density=255.8 kg/m3 | 524.03 J/K/mol and 301.68 J/K/mol
508.71 K, Mass density=266.3 kg/m3 | 520.48 J/K/mol
508.71 K, Mass density=281.9 kg/m3 | 469.58 J/K/mol and 277.46 J/K/mol
508.72 K, Mass density=266.3 kg/m3 | 572.71 J/K/mol and 337.73 J/K/mol
508.72 K, Mass density=274 kg/m3 | 515.62 J/K/mol and 304.08 J/K/mol
508.72 K, Mass density=293.3 kg/m3 | 245.07 J/K/mol
508.73 K, Mass density=255.8 kg/m3 | 293.08 J/K/mol
508.74 K, Mass density=281.9 kg/m3 | 270.61 J/K/mol
508.75 K, Mass density=234.3 kg/m3 | 245.01 J/K/mol
508.75 K, Mass density=266.3 kg/m3 | 306.97 J/K/mol
508.75 K, Mass density=288.99 kg/m3 | 247.77 J/K/mol
508.75 K, Mass density=324.5 kg/m3 | 199.15 J/K/mol
508.75 K, Mass density=343.1 kg/m3 | 175.96 J/K/mol
508.76 K, Mass density=329.2 kg/m3 | 186.9 J/K/mol
508.84 K, Mass density=234.3 kg/m3 | 238.7 J/K/mol
508.84 K, Mass density=255.8 kg/m3 | 268.32 J/K/mol
508.84 K, Mass density=266.3 kg/m3 | 281.06 J/K/mol
508.84 K, Mass density=274 kg/m3 | 273.13 J/K/mol
508.84 K, Mass density=281.9 kg/m3 | 250 J/K/mol
508.84 K, Mass density=288.99 kg/m3 | 237.68 J/K/mol
508.84 K, Mass density=293.3 kg/m3 | 231.97 J/K/mol
508.84 K, Mass density=324.5 kg/m3 | 196.75 J/K/mol
508.84 K, Mass density=343.1 kg/m3 | 176.44 J/K/mol
508.94 K, Mass density=234.3 kg/m3 | 228.96 J/K/mol
508.94 K, Mass density=255.8 kg/m3 | 253 J/K/mol
508.94 K, Mass density=266.3 kg/m3 | 267.3 J/K/mol
508.94 K, Mass density=274 kg/m3 | 261.53 J/K/mol
508.94 K, Mass density=281.9 kg/m3 | 233.77 J/K/mol
508.94 K, Mass density=288.99 kg/m3 | 223.91 J/K/mol
508.94 K, Mass density=293.3 kg/m3 | 219.23 J/K/mol
508.94 K, Mass density=324.5 kg/m3 | 197.11 J/K/mol
509.02 K, Mass density=255.8 kg/m3 | 241.34 J/K/mol
509.03 K, Mass density=266.3 kg/m3 | 252.46 J/K/mol
509.03 K, Mass density=274 kg/m3 | 247.59 J/K/mol
509.03 K, Mass density=281.9 kg/m3 | 225.96 J/K/mol
509.03 K, Mass density=288.99 kg/m3 | 217.96 J/K/mol
509.03 K, Mass density=293.3 kg/m3 | 209.73 J/K/mol
509.03 K, Mass density=324.5 kg/m3 | 192.42 J/K/mol
509.12 K, Mass density=234.3 kg/m3 | 213.22 J/K/mol
509.12 K, Mass density=266.3 kg/m3 | 242.96 J/K/mol
509.12 K, Mass density=274 kg/m3 | 238.4 J/K/mol
509.12 K, Mass density=281.9 kg/m3 | 217.24 J/K/mol

molar heat capacity at constant volume [J/K/mol]
Conditions | 508.51 K | 508.68 K | 508.69 K | 508.7 K | 508.71 K | 508.72 K
Gas | 279.44 | – | – | 301.68 | – | 337.73
Liquid | – | 253.6 | 264.72 | – | 277.46 | 304.08
